Measurements reported in patent publication US20250195513A1, “DEGRADATION OF IRAK4 BY CONJUGATION OF IRAK4 INHIBITORS WITH E3 LIGASE LIGAND AND METHODS OF USE” (BeiGene, Ltd., priority 2022, published 2025).
Where two headings read alike, the source gives them in different places.

Target: T1, IRAK4 (Homo sapiens, UniProt Q9NWZ3)
T1 construct: endogenous in cells; host or cells: Karpas299
T1 sequence (Q9NWZ3 1-460): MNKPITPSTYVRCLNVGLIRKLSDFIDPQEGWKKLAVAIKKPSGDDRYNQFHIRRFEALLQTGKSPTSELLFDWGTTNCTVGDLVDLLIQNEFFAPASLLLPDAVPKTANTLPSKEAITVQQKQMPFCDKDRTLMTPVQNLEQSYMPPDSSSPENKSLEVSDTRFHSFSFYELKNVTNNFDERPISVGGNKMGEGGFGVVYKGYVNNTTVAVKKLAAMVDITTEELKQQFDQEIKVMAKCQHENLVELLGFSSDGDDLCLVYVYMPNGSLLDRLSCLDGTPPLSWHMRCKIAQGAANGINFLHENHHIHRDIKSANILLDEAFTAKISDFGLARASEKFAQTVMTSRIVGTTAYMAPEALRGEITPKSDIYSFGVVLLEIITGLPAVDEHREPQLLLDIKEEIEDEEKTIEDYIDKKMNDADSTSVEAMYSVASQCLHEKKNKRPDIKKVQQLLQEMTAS
Experiment: IRAK4 Degradation Assay (Karpas299, HTRF/TR-FRET)
Assay type: cell-based
Procedure: IRAK4 degradation was measured using a TR-FRET-based method (Degorce, François, et al. Current chemical genomics. 2009, 3: 22). Karpas299 maintained in RPMI 1640 medium (Thermo Scientific) supplemented with 20% fetal bovine serum (FBS, Thermo Scientific), 100 units/mL penicillin and 0.1 mg/mL streptomycin (Thermo Scientific) were seeded into 96-well plates at the density of 0.2 million cells per well and then treated with a series dilution of compounds. After 24 hours or 5 hours treatment, cells were pelleted via centrifugation and 40 μL lysis buffer (Cisbio) was added to each well after removal of the supernatant. Plates were then incubated at room temperature with shaking for 30 minutes. A total of 16 μL of cell lysates from each well of a 96-well plate was transferred to a 384-well white assay plate. IRAK4 level was quantitated using the HTRF kit as described by the manufacturer manual (Cisbio). FRET signals were measured using a PHERAstar FSX reader (BMG Labtech).
After treatment, add HTRF lysis buffer to each well; seal the plate and incubate 1 hour at room temperature on a plate shaker; Once the cells are lysed, 16 μL of cell lysate are transferred to a PE 384-well HTRF detection plate; 4 μL of pre-mixed HTRF antibodies are added to each well; Cover the plate with a plate sealer, spin 1000 rpm for 1 min, Incubate overnight at room temperature; Read on BMG PheraStar with HTRF protocol (337 nm-665 nm-620 nm).
The inhibition (degradation) percentage of the compound was calculated by the following equation: […]
The IC50 (DC50) value of a compound can be obtained by fitting the following equation
Wherein, X and Y are known values, and IC50, Hillslope, Top and Bottom are the parameters obtained by fitting with software. Y is the inhibition percentage (calculated from the equation), X is the concentration of the compound; IC50 is the concentration of the compound when the […] is reached. The smaller the IC50 value is, the stronger the inhibitory ability of the compound is. Vice versa, the higher the IC50 value is, the weaker the ability the inhibitory ability of the compound is; Hillslope represents the slope of the fitted curve, generally around 1 *; Bottom represents the minimum value of the curve obtained by data fitting, which is generally 0%±20%; Top represents the maximum value of the curve obtained by data fitting, which is generally 100%±20%. The experimental data were fitted by calculating and analyzing with Dotmatics data analysis software.

[1] = Karpas-299 cells, 24 h treatment, maximum percentage of degradation, read-out: IRAK4 in Karpas-299 (24 h) Dmax (%)
[2] = Karpas-299 cells, 24 h treatment, read-out: IRAK4 in Karpas-299 (24 h) DC50
[3] = Karpas-299 cells, 5 h treatment, maximum percentage of degradation, read-out: IRAK4 in Karpas-299 (5 h) Dmax (%)
[4] = Karpas-299 cells, 5 h treatment, read-out: IRAK4 in Karpas-299 (5 h) DC50

| DC50 (Degradation (Karpas-299), comparison table, Linker Type A, read-out: Compound (Linker Type A) DC50) [nM] | Dmax (Degradation (Karpas-299), comparison table, Linker Type A, read-out: Compound (Linker Type A) Dmax (%)) [%] | Dmax [1] [%] | DC50 [2] [nM] | Dmax [3] [%] | DC50 [4] [nM] | Compound |
| --- | --- | --- | --- | --- | --- | --- |
| > 10000 | 10 | 10 | > 10000 |  |  | COc1cc2nn(C3CCN(C(=O)[C@H]4CC[C@H](Oc5ccc(C6CCC(=O)NC6=O)cc5)CC4)CC3)cc2cc1NC(=O)c1cccc(C(F)(F)F)n1 (stereo partly drawn) [Example 35, N-(2-(1-((1r,4r)-4-(4-(2,6-dioxopiperidin-3-yl)phenoxy)cyclohexane-1-carbonyl)piperidin-4-yl)-6-methoxy-2H-indazol-5-yl)-6-(trifluoromethyl)picolinamide] |
|  |  | 92 | 5.4 |  |  | NC(=O)c1nn([C@H]2CC[C@H](N3CCN(C4CC(c5ccc(N[C@H]6CCC(=O)NC6=O)cc5)C4)CC3)CC2)cc1NC(=O)c1coc(-c2ccnc(NCC(F)(F)F)c2)n1 (stereo partly drawn) [Example 10, N-(3-carbamoyl-1-((1r,4r)-4-(4-(3-(4-(((S)-2,6-dioxopiperidin-3-yl)amino)phenyl)cyclobutyl)piperazin-1-yl)cyclohexyl)-1H-pyrazol-4-yl)-2-(2-((2,2,2-trifluoroethyl)amino)pyridin-4-yl)oxazole-4-carboxamide] |
|  |  | 99 | 2.5 |  |  | O=C1CC[C@H](c2c(F)cc(N3CC(C(=O)N4CCN([C@H]5CC[C@H](n6cc(NC(=O)c7coc(-c8ccnc(NCC9CC9)c8)n7)c(C(F)F)n6)CC5)CC4)C3)cc2F)C(=O)N1 [Example 25, 2-(2-((cyclopropylmethyl)amino)pyridin-4-yl)-N-(3-(difluoromethyl)-1-((1r,4r)-4-(4-(1-(4-((R)-2,6-dioxopiperidin-3-yl)-3,5-difluorophenyl)azetidine-3-carbonyl)piperazin-1-yl)cyclohexyl)-1H-pyrazol-4-yl)oxazole-4-carboxamide] |
|  |  | 99 | 0.8 | 94 | 5.3 | O=C1CC[C@H](c2c(F)cc(N3CC(C(=O)N4CCN([C@H]5CC[C@H](n6cc7cc(NC(=O)c8cccc(C(F)(F)F)n8)c(C(=O)N[C@H]8C[C@H](CO)C8)cc7n6)CC5)CC4)C3)cc2F)C(=O)N1 [Example 167, 2-((1r,4R)-4-(4-(1-(4-((R)-2,6-dioxopiperidin-3-yl)-3,5-difluorophenyl)azetidine-3-carbonyl)piperazin-1-yl)cyclohexyl)-N-((1r,3R)-3-(hydroxymethyl)cyclobutyl)-5-(6-(trifluoromethyl)picolinamido)-2H-indazole-6-carboxamide] |
|  |  | 94 | 2.7 | 84 | 7.5 | O=C1CCN(c2ccc(N3CC(C(=O)N4CCN([C@H]5CC[C@H](n6cc(NC(=O)c7coc(-c8ccnc(NCC(F)(F)F)c8)n7)c(C(F)F)n6)CC5)CC4)C3)cc2)C(=O)N1 [Example 13, N-(3-(difluoromethyl)-1-((1r,4r)-4-(4-(1-(4-(2,4-dioxotetrahydropyrimidin-1(2H)-yl)phenyl)azetidine-3-carbonyl)piperazin-1-yl)cyclohexyl)-1H-pyrazol-4-yl)-2-(2-((2,2,2-trifluoroethyl)amino)pyridin-4-yl)oxazole-4-carboxamide] |
|  |  | 94 | 1.9 |  |  | CC(C)(O)c1cc2nn(C3CCN([C@H]4CCN(C(=O)C5CN(c6cc(F)c([C@H]7CCC(=O)NC7=O)c(F)c6)C5)CC4(F)F)CC3)cc2cc1NC(=O)c1ccc2cc(C#N)cnn12 [Example 287, 3-cyano-N-(2-((S)-1′-(1-(4-((R)-2,6-dioxopiperidin-3-yl)-3,5-difluorophenyl)azetidine-3-carbonyl)-3′,3′-difluoro-[1,4′-bipiperidin]-4-yl)-6-(2-hydroxypropan-2-yl)-2H-indazol-5-yl)pyrrolo[1,2-b]pyridazine-7-carboxamide] |
|  |  | 99 | 2.8 |  |  | O=C1CC[C@H](c2c(F)cc(N3CC(CN4CCN([C@H]5CC[C@H](n6cc(NC(=O)c7coc(-c8ccnc(NCC9CC9)c8)n7)c(C(F)F)n6)CC5)CC4)C3)cc2F)C(=O)N1 [Example 27, 2-(2-((cyclopropylmethyl)amino)pyridin-4-yl)-N-(3-(difluoromethyl)-1-((1r,4r)-4-(4-((1-(4-((R)-2,6-dioxopiperidin-3-yl)-3,5-difluorophenyl)azetidin-3-yl)methyl)piperazin-1-yl)cyclohexyl)-1H-pyrazol-4-yl)oxazole-4-carboxamide] |
|  |  | 58 | 252 |  |  | CC(C)(O)c1cc2nn([C@H]3CC[C@H](N4CCN(CC(=O)N[C@@H](Cc5ccccc5)C(=O)NC5CCC(=O)NC5=O)CC4)CC3)cc2cc1NC(=O)c1ccc2cc(C#N)cnn12 (stereo partly drawn) [Example 439, 3-cyano-N-(2-((1S,4r)-4-(4-(2-(((2S)-1-((2,6-dioxopiperidin-3-yl)amino)-1-oxo-3-phenylpropan-2-yl)amino)-2-oxoethyl)piperazin-1-yl)cyclohexyl)-6-(2-hydroxypropan-2-yl)-2H-indazol-5-yl)pyrrolo[1,2-b]pyridazine-7-carboxamide] |
|  |  | 93 | 9 |  |  | CC(C)(O)c1cc2nn(C3CCN([C@@H]4CCN(C(=O)C5CN(c6cc(F)c(N7CCC(=O)NC7=O)c(F)c6)C5)CC4(F)F)CC3)cc2cc1NC(=O)c1ccc2cc(C#N)cnn12 [Example 198, (R)-3-cyano-N-(2-(1′-(1-(4-(2,4-dioxotetrahydropyrimidin-1(2H)-yl)-3,5-difluorophenyl)azetidine-3-carbonyl)-3′,3′-difluoro-[1,4′-bipiperidin]-4-yl)-6-(2-hydroxypropan-2-yl)-2H-indazol-5-yl)pyrrolo[1,2-b]pyridazine-7-carboxamide] |
|  |  | 99 | 1.9 |  |  | O=C1CC[C@H](c2c(F)cc(N3CC[C@@H](C(=O)N4CCN([C@H]5CC[C@H](n6cc7cc(NC(=O)c8cccc(C(F)(F)F)n8)c(C(=O)NC8CC8)cc7n6)CC5)CC4)C3)cc2F)C(=O)N1 [Example 129, N-cyclopropyl-2-((1R,4r)-4-(4-((R)-1-(4-((R)-2,6-dioxopiperidin-3-yl)-3,5-difluorophenyl)pyrrolidine-3-carbonyl)piperazin-1-yl)cyclohexyl)-5-(6-(trifluoromethyl)picolinamido)-2H-indazole-6-carboxamide] |
|  |  | 97 | 1 |  |  | CC(C)(O)c1cc2nn([C@H]3CC[C@H](N4CCN(C(=O)N5CCN(c6cc(F)c([C@H]7CCC(=O)NC7=O)c(F)c6)CC5)CC4)CC3)cc2cc1NC(=O)c1ccc2cc(C#N)cnn12 [Example 225, 3-cyano-N-(2-((1r,4r)-4-(4-(4-(4-((R)-2,6-dioxopiperidin-3-yl)-3,5-difluorophenyl)piperazine-1-carbonyl)piperazin-1-yl)cyclohexyl)-6-(2-hydroxypropan-2-yl)-2H-indazol-5-yl)pyrrolo[1,2-b]pyridazine-7-carboxamide] |
|  |  | 99 | 2.2 |  |  | O=C1CC[C@H](c2c(F)cc(N3CC[C@@H](C(=O)N4CCN([C@H]5CC[C@H](n6cc(NC(=O)c7coc(-c8ccnc(NCC9CC9)c8)n7)c(C(F)F)n6)CC5)CC4)C3)cc2F)C(=O)N1 [Example 26, 2-(2-((cyclopropylmethyl)amino)pyridin-4-yl)-N-(3-(difluoromethyl)-1-((1R,4r)-4-(4-((R)-1-(4-((R)-2,6-dioxopiperidin-3-yl)-3,5-difluorophenyl)pyrrolidine-3-carbonyl)piperazin-1-yl)cyclohexyl)-1H-pyrazol-4-yl)oxazole-4-carboxamide] |
